The source of these data is patent US6517871B1, “Bioenhanced formulations comprising eprosartan in oral solid dosage form” (SmithKline Beecham Corporation, priority 1998, dated 2003).

One data set can be described thus: clinical. Particulars: human, in vivo. The text has this: Eprosartan is an amphiphilic molecule containing two acidic (allylic carboxylic acid and phenylic carboxylic acid) and one basic (imidazole) functional groups. At lower pH (below 2) the imidazole nitrogen will be protonated (form ii). As the pH increases, the allylic carboxylic group will be deprotonated (form iii). […] As the pH increases further, the phenylic carboxylic group will be depronated (form iv) followed by the deprotonation of the protonated imidazole group (form v). […] According to the pH-partitioning theory of absorption, only the unionized species (form ii) or the ion-neutral species (form iii) will be absorbed by passive diffusion. […] The time to maximum concentration is between 1 to 2.5 hours in fasted state and 2.5-4 hours in fed state. […] Additionally, since the commercial form of the drug is as its mesylate, which becomes dihydrated during the formulation process, high dose tablets (e.g., 600 mg tablets weigh 1,200.0 mg) may be difficult to swallow.

Data set [1] can be described thus: pH-solubility profiles (FIG. 2). The class given is physicochemical. Particulars: pH >4.0 to 5.5, where the enteric coat starts to release.

Each structure is given as a SMILES string. Where a name gives a salt, the structure may show the parent alone.

As for `CCCCc1ncc(/C=C(\Cc2cccs2)C(=O)O)n1Cc1ccc(C(=O)O)cc1` [eprosartan mesylate, (E)-α-[2-n-Butyl-1-[(4-carboxyphenyl)methyl]-1H-imidazol-5-yl]methylene-2-thiophenepropionic acid monomethanesulfonate], the bioavailability (commonly the share of a dose that reaches the circulation, judged against a reference dose that is usually intravenous) in “clinical” was approximately 13%.
Take `CCCCc1ncc(/C=C(\Cc2cccs2)C(=O)O)n1Cc1ccc(C(=O)O)cc1` [eprosartan, (E)-α-[2-n-butyl-1-[(4-carboxyphenyl)methyl]-1H-imidazol-5-yl]methylene-2-thiophenepropionic acid]: in “clinical”, the mean absolute bioavailability entry is given as “approximately 13%” and the “time to maximum concentration” value is 1 to 2.5 h. Besides, the “drug solubility at initiation pHs” value in data set [1] is on record as “negligible”.
